In US20260007681A1, “INDOLE DERIVATIVES AS ESTROGEN RECEPTOR DEGRADERS” (REGENTS OF THE UNIVERSITY OF MICHIGAN, priority 2022, published 2026):

Tests used:
[1] = molecular target: ER (Homo sapiens (Human), UniProt P03372); assay: In-cell western blot analysis of relative ER percentage (Compounds B1-B278); assay type: cell-based; settings: ER degradation, 16 hours, read-out: ICW DC50
Outline: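 In-cell western: after 16 h compound exposure (0.5% DMSO final), fixed and permeabilized cells are probed with anti-ER plus anti-GAPDH and near-infrared secondaries. Relative ER percentage compares treated wells against untreated and DMSO wells taken as 100%; seeding 40,000 or 10,000 cells/well.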

[2] = Cell growth assay (WST-8) (Compounds B1-B278); assay type: cell-based; settings: 96 h; T47D cell line; WST-8, 4 days; read-out: Cell Growth Inhibition in T47D cell line IC50
Outline: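 Read-out is WST-8 absorbance at 450 nm (2.5 h, 37° C) as a fraction of vehicle control, from three separate repeats. Compound exposure lasted 4 days, starting one day after plating 1500 cells/well.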

Chain of ER (P03372 whole entry): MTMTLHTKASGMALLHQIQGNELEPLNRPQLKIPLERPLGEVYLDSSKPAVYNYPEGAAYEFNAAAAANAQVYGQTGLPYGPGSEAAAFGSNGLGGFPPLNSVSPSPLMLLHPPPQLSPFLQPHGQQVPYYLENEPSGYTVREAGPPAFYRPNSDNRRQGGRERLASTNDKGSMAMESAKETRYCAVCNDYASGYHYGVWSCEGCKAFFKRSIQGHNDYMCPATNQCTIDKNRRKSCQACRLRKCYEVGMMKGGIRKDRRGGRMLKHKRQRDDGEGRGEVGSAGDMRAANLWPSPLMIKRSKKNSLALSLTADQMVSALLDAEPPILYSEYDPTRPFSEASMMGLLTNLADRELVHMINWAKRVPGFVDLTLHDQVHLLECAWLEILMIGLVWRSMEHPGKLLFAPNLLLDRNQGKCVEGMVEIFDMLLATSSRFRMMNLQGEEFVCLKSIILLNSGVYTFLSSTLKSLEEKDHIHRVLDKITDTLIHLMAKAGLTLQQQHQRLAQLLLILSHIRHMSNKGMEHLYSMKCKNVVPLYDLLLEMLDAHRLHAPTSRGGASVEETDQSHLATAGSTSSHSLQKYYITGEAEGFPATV

## C[C@@H]1Cc2c([nH]c3ccccc23)[C@@H](c2c(F)cc(N3CCC4(CC3)CN(C(=O)CN3CCN5c6ccc7c(c6OC[C@H]5C3)CN(C3CCC(=O)NC3=O)C7=O)C4)cc2F)N1CC(F)F (stereo partly drawn) [Compound B174, 3-((R)-7-(2-(7-(4-((1R,3R)-2-(2,2-difluoroethyl)-3-methyl-2,3,4,9-tetrahydro-1H-pyrido[3,4-b]indol-1-yl)-3,5-difluorophenyl)-2,7-diazaspiro[3.5]nonan-2-yl)-2-oxoethyl)-1-oxo-1,3,5,5a,6,7,8,9-octahydro-2H-pyrazino[1′,2′:4,5][1,4]oxazino[2,3-e]isoindol-2-yl)piperidine-2,6-dione]
[1]
  DC50: < 10 nM
[2]
  IC50: < 1 nM

## C[C@@H]1Cc2c([nH]c3ccccc23)[C@@H](c2cnc(N3CCC4(CC3)CN(CC(=O)N3CCN5c6ccc7c(c6OC[C@H]5C3)CN(C3CCC(=O)NC3=O)C7=O)C4)nc2)N1CC(F)(F)F (stereo partly drawn) [Compound B175, 3-((R)-7-(2-(7-(5-((1R,3R)-3-methyl-2-(2,2,2-trifluoroethyl)-2,3,4,9-tetrahydro-1H-pyrido[3,4-b]indol-1-yl)pyrimidin-2-yl)-2,7-diazaspiro[3.5]nonan-2-yl)acetyl)-1-oxo-1,3,5,5a,6,7,8,9-octahydro-2H-pyrazino[1′,2′:4,5][1,4]oxazino[2,3-e]isoindol-2-yl)piperidine-2,6-dione]
[1]
  DC50: < 10 nM
[2]
  IC50: 1 to 10 nM

## C[C@@H]1Cc2c([nH]c3ccccc23)[C@@H](c2cnc(N3CCC4(CC3)CN(C(=O)CN3CCN5c6ccc7c(c6OC[C@H]5C3)CN(C3CCC(=O)NC3=O)C7=O)C4)nc2)N1CC(F)F (stereo partly drawn) [Compound B176, 3-((R)-7-(2-(7-(5-((1R,3R)-2-(2,2-difluoroethyl)-3-methyl-2,3,4,9-tetrahydro-1H-pyrido[3,4-b]indol-1-yl)pyrimidin-2-yl)-2,7-diazaspiro[3.5]nonan-2-yl)-2-oxoethyl)-1-oxo-1,3,5,5a,6,7,8,9-octahydro-2H-pyrazino[1′,2′:4,5][1,4]oxazino[2,3-e]isoindol-2-yl)piperidine-2,6-dione]
[1]
  DC50: < 10 nM
[2]
  IC50: 1 to 10 nM

## C[C@@H]1Cc2c([nH]c3ccccc23)[C@@H](c2c(F)cc(N3CCC4(CC3)CN(CC(=O)N3CCN5c6ccc7c(c6OC[C@H]5C3)CN(C3CCC(=O)NC3=O)C7=O)C4)cc2F)N1CC(F)F (stereo partly drawn) [Compound B177, 3-((R)-7-(2-(7-(4-((1R,3R)-2-(2,2-difluoroethyl)-3-methyl-2,3,4,9-tetrahydro-1H-pyrido[3,4-b]indol-1-yl)-3,5-difluorophenyl)-2,7-diazaspiro[3.5]nonan-2-yl)acetyl)-1-oxo-1,3,5,5a,6,7,8,9-octahydro-2H-pyrazino[1′,2′:4,5][1,4]oxazino[2,3-e]isoindol-2-yl)piperidine-2,6-dione]
[1]
  DC50: 10 to 100 nM
[2]
  IC50: < 1 nM

## C[C@@H]1Cc2c([nH]c3ccccc23)[C@@H](c2cnc(N3CC4(CC(CN5CCN6c7ccc8c(c7OC[C@H]6C5)CN(C5CCC(=O)NC5=O)C8=O)C4)C3)nc2)N1CC(C)(F)F (stereo partly drawn) [Compound B178, 3-((R)-7-((2-(5-((1R,3R)-2-(2,2-difluoropropyl)-3-methyl-2,3,4,9-tetrahydro-1H-pyrido[3,4-b]indol-1-yl)pyrimidin-2-yl)-2-azaspiro[3.3]heptan-6-yl)methyl)-1-oxo-1,3,5,5a,6,7,8,9-octahydro-2H-pyrazino[1′,2′:4,5][1,4]oxazino[2,3-e]isoindol-2-yl)piperidine-2,6-dione]
[1]
  DC50: 10 to 100 nM
[2]
  IC50: 1 to 10 nM

## C[C@@H]1Cc2c([nH]c3ccccc23)[C@@H](c2cnc(N3CC4(CC(CN5CCN6c7ccc8c(c7OC[C@H]6C5)CN(C5CCC(=O)NC5=O)C8=O)C4)C3)nc2)N1CC(F)F (stereo partly drawn) [Compound B179, 3-((R)-7-((2-(5-((1R,3R)-2-(2,2-difluoroethyl)-3-methyl-2,3,4,9-tetrahydro-1H-pyrido[3,4-b]indol-1-yl)pyrimidin-2-yl)-2-azaspiro[3.3]heptan-6-yl)methyl)-1-oxo-1,3,5,5a,6,7,8,9-octahydro-2H-pyrazino[1′,2′:4,5][1,4]oxazino[2,3-e]isoindol-2-yl)piperidine-2,6-dione]
[1]
  DC50: 10 to 100 nM
[2]
  IC50: > 10 nM

## C[C@@H]1Cc2c([nH]c3ccccc23)[C@@H](c2cnc(N3CCC4(CC3)CC(CN3CCN5c6ccc7c(c6OC[C@H]5C3)CN(C3CCC(=O)NC3=O)C7=O)C4)nc2)N1CC(C)(C)F (stereo partly drawn) [Compound B180, 3-((R)-7-((7-(5-((1R,3R)-2-(2-fluoro-2-methylpropyl)-3-methyl-2,3,4,9-tetrahydro-1H-pyrido[3,4-b]indol-1-yl)pyrimidin-2-yl)-7-azaspiro[3.5]nonan-2-yl)methyl)-1-oxo-1,3,5,5a,6,7,8,9-octahydro-2H-pyrazino[1′,2′:4,5][1,4]oxazino[2,3-e]isoindol-2-yl)piperidine-2,6-dione]
[1]
  DC50: < 10 nM
[2]
  IC50: 1 to 10 nM

## C[C@@H]1Cc2c([nH]c3ccccc23)[C@@H](c2cnc(N3CCC4(CC3)CC(CN3CCN5c6ccc7c(c6OC[C@H]5C3)CN(C3CCC(=O)NC3=O)C7=O)C4)nc2)N1CC(F)F (stereo partly drawn) [Compound B181, 3-((R)-7-((7-(5-((1R,3R)-2-(2,2-difluoroethyl)-3-methyl-2,3,4,9-tetrahydro-1H-pyrido[3,4-b]indol-1-yl)pyrimidin-2-yl)-7-azaspiro[3.5]nonan-2-yl)methyl)-1-oxo-1,3,5,5a,6,7,8,9-octahydro-2H-pyrazino[1′,2′:4,5][1,4]oxazino[2,3-e]isoindol-2-yl)piperidine-2,6-dione]
[1]
  DC50: < 10 nM
[2]
  IC50: < 1 nM

## C[C@@H]1Cc2c([nH]c3ccccc23)[C@@H](c2cnc(N3CC4(CCC(CN5CCN6c7ccc8c(c7OC[C@H]6C5)CN(C5CCC(=O)NC5=O)C8=O)CC4)C3)nc2)N1CC(C)(C)F (stereo partly drawn) [Compound B182, 3-((R)-7-((2-(5-((1R,3R)-2-(2-fluoro-2-methylpropyl)-3-methyl-2,3,4,9-tetrahydro-1H-pyrido[3,4-b]indol-1-yl)pyrimidin-2-yl)-2-azaspiro[3.5]nonan-7-yl)methyl)-1-oxo-1,3,5,5a,6,7,8,9-octahydro-2H-pyrazino[1′,2′:4,5][1,4]oxazino[2,3-e]isoindol-2-yl)piperidine-2,6-dione]
[1]
  DC50: < 10 nM
[2]
  IC50: 1 to 10 nM

## C[C@@H]1Cc2c([nH]c3ccccc23)[C@@H](c2cnc(N3CC4(CCC(CN5CCN6c7ccc8c(c7OC[C@H]6C5)CN(C5CCC(=O)NC5=O)C8=O)CC4)C3)nc2)N1CC(F)F (stereo partly drawn) [Compound B183, 3-((R)-7-((2-(5-((1R,3R)-2-(2,2-difluoroethyl)-3-methyl-2,3,4,9-tetrahydro-1H-pyrido[3,4-b]indol-1-yl)pyrimidin-2-yl)-2-azaspiro[3.5]nonan-7-yl)methyl)-1-oxo-1,3,5,5a,6,7,8,9-octahydro-2H-pyrazino[1′,2′:4,5][1,4]oxazino[2,3-e]isoindol-2-yl)piperidine-2,6-dione]
[1]
  DC50: < 10 nM
[2]
  IC50: 1 to 10 nM

## C[C@@H]1Cc2c([nH]c3ccccc23)[C@@H](c2cnc(N3CCC(CN4CCN5c6ccc7c(c6OC[C@@H]5C4)CN(C4CCC(=O)NC4=O)C7=O)CC3)nc2)N1CC(C)(C)F (stereo partly drawn) [Compound B258, 3-((S)-7-((1-(5-((1R,3R)-2-(2-fluoro-2-methylpropyl)-3-methyl-2,3,4,9-tetrahydro-1H-pyrido[3,4-b]indol-1-yl)pyrimidin-2-yl)piperidin-4-yl)methyl)-1-oxo-1,3,5,5a,6,7,8,9-octahydro-2H-pyrazino[1′,2′:4,5][1,4]oxazino[2,3-e]isoindol-2-yl)piperidine-2,6-dione]
[1]
  DC50: > 100 nM
[2]
  IC50: < 1 nM

## C[C@@H]1Cc2c([nH]c3ccccc23)[C@@H](c2cnc(N3CC4(CCC(CN5CCN6c7ccc8c(c7OC[C@H]6C5)CN(C5CCC(=O)NC5=O)C8=O)CC4)C3)nc2)N1CC1(F)CC1 (stereo partly drawn) [Compound B260, 3-((R)-7-((2-(5-((1R,3R)-2-((1-fluorocyclopropyl)methyl)-3-methyl-2,3,4,9-tetrahydro-1H-pyrido[3,4-b]indol-1-yl)pyrimidin-2-yl)-2-azaspiro[3.5]nonan-7-yl)methyl)-1-oxo-1,3,5,5a,6,7,8,9-octahydro-2H-pyrazino[1′,2′:4,5][1,4]oxazino[2,3-e]isoindol-2-yl)piperidine-2,6-dione]
[1]
  DC50: 10 to 100 nM
[2]
  IC50: 1 to 10 nM

## C[C@@H]1Cc2c([nH]c3ccccc23)[C@@H](c2cnc(N3CCC4(CC3)CC(CN3CCN5c6ccc7c(c6OC[C@H]5C3)CN(C3CCC(=O)NC3=O)C7=O)C4)nc2)N1CC1(F)CC1 (stereo partly drawn) [Compound B261, 3-((R)-7-((7-(5-((1R,3R)-2-((1-fluorocyclopropyl)methyl)-3-methyl-2,3,4,9-tetrahydro-1H-pyrido[3,4-b]indol-1-yl)pyrimidin-2-yl)-7-azaspiro[3.5]nonan-2-yl)methyl)-1-oxo-1,3,5,5a,6,7,8,9-octahydro-2H-pyrazino[1′,2′:4,5][1,4]oxazino[2,3-e]isoindol-2-yl)piperidine-2,6-dione]
[1]
  DC50: 10 to 100 nM
[2]
  IC50: 1 to 10 nM

## C[C@@H]1Cc2c([nH]c3ccccc23)[C@@H](c2cnc(N3CCC4(CC3)CC(CN3CCC5(CC3)COc3c5ccc5c3CN(C3CCC(=O)NC3=O)C5=O)C4)nc2)N1CC(F)F (stereo partly drawn) [Compound B262, 3-(1′-((7-(5-((1R,3R)-2-(2,2-difluoroethyl)-3-methyl-2,3,4,9-tetrahydro-1H-pyrido[3,4-b]indol-1-yl)pyrimidin-2-yl)-7-azaspiro[3.5]nonan-2-yl)methyl)-6-oxo-6,8-dihydro-2H,7H-spiro[furo[2,3-e]isoindole-3,4′-piperidin]-7-yl)piperidine-2,6-dione]
[1]
  DC50: 10 to 100 nM
[2]
  IC50: < 1 nM
